According to patent publication US12180169B1, “4-[4,4-bis(4-bromophenyl)-5-oxo-2-thioxoimidazolidin-1-yl]butanoic acid as an antimicrobial compound” (KING FAISAL UNIVERSITY, priority 2023, dated 2024):

Legend:
Assay type in all cases: cell-based
Settings in all cases: after 10, 20, 40 and 60 min at all dilutions 1:100, 1:200, 1:400, 1:800
[1] = test system: Escherichia coli; assay: Antimicrobial testing by agar dilution, Escherichia coli
Procedure: (§1) The antimicrobial properties of the 4-[4,4-bis(4-bromophenyl)-2,5-dioxoimidazolidin-1-yl]butanoic acid were studied by the method of agar dilution. Test solutions of each compound was prepared in concentration of 1% using dimethylformamide as a solvent then they are diluted in physiological solution to obtain the final experimental dilutions 1:100, 1:200, 1:400, 1:800. The effect of these substances are compared with furacillin in a controlable study. The testing microbes used were gram positive bacteria Staphylococcus aereus, gram negative bacteria Escherichia coli, Pseudomonas aeruginosa and Candida albicans fungi were taken. The experiments used for this survey were meat-pentonlu agar (EPA) for cultivation of bacteria and Saburo environment for fungi. Each experiment used 1 ml of test solution on each plate 500 min. Add 2 drops of emulsified with microbes feel. All experimental samples were taken from the agar after 10, 20, 40, 60 minutes in the environment on the basis of Patrk planted. Bacteria were cultivated at a temperature of 37° C. for 1 day and the mushroom was kept in a thermostat for […] at a temperature of 28° C. in the. Then results were checked.

[2] = test system: Staphylococcus aereus; assay: Antimicrobial testing by agar dilution, Staphylococcus aereus
Procedure: as §1

[3] = test system: Candida albicans; assay: Antimicrobial testing by agar dilution, Candida albicans fungi
Procedure: as §1

[4] = test system: Pseudomonas aeruginosa; assay: Antimicrobial testing by agar dilution, Pseudomonas aeruginosa
Procedure: as §1

Measured: inhibition activity (summary in words)

O=C(O)CCCN1C(=O)C(c2ccc(Br)cc2)(c2ccc(Br)cc2)NC1=S [4-[4,4-bis(4-bromophenyl)-5-oxo-2-thioxoimidazolidin-1-yl]butanoic acid]
higher inhibition activity: all assays above
